Reference: PMC2990605 (British Journal of Cancer, 2010)

Assay: Adverse events (CTCAEv3.0), worst grade per patient regardless of relation, and laboratory parameters
Format: in vivo
Settings: for Alanine aminotransferase increased, CTCAE grade 5, patients / Alopecia, CTCAE grade 5, patients / Anaemia, CTCAE grade 5, patients / Anorexia, CTCAE grade 5, patients / Arthralgia, CTCAE grade 5, patients / Back pain, CTCAE grade 5, patients / Blood bilirubin, CTCAE grade 5, patients / Bronchitis, CTCAE grade 5, patients / Constipation, CTCAE grade 5, patients / Cough, CTCAE grade 5, patients / Cystitis, CTCAE grade 5, patients / Dehydration, CTCAE grade 5, patients / Diabetes mellitus, CTCAE grade 5, patients / Diarrhoea, CTCAE grade 5, patients / Dizziness, CTCAE grade 5, patients / Drug hypersensitivity, CTCAE grade 5, patients / Dry skin, CTCAE grade 5, patients / Dyspnoea, CTCAE grade 5, patients / Eosinophilic myocarditis, CTCAE grade 5, patients / Erythema, CTCAE grade 5, patients / Fatigue, CTCAE grade 5, patients / Gastric dilatation, CTCAE grade 5, patients / General physical health deterioration, CTCAE grade 5, patients / Hypercalcaemia, CTCAE grade 5, patients / Hyperglycaemia, CTCAE grade 5, patients / Hyperhidrosis, CTCAE grade 5, patients / Leukopenia, CTCAE grade 5, patients / Malaise, CTCAE grade 5, patients / Mucosal inflammation, CTCAE grade 5, patients / Myalgia, CTCAE grade 5, patients / Nasopharyngitis, CTCAE grade 5, patients / Nausea, CTCAE grade 5, patients / Neutropenia, CTCAE grade 5, patients / Oedema peripheral, CTCAE grade 5, patients / Oedema, CTCAE grade 5, patients / Peripheral sensory neuropathy, CTCAE grade 5, patients / Pollakiuria, CTCAE grade 5, patients / Pruritus, CTCAE grade 5, patients / Pulmonary embolism, CTCAE grade 5, patients / Pyrexia, CTCAE grade 5, patients / Rash, CTCAE grade 5, patients / Spinal cord compression, CTCAE grade 5, patients / Tumour pain, CTCAE grade 5, patients / Urinary tract infection, CTCAE grade 5, patients / Vomiting, CTCAE grade 5, patients / γ-glutamyltransferase increased, CTCAE grade 5, patients: with paclitaxel
Protocol: Toxicity was evaluated according to common toxicity criteria for adverse events (CTCAEv3.0). The MTD was defined as the dose level(s) at which at least two out of six patients developed DLT.
Toxicity assessment, haematology and clinical biochemistry were performed at baseline and weekly during the study. Physical and ECOG performance status were recorded at baseline and before the next cycle.

SMILES: CC(C)C[C@@H](C(=O)N[C@H](C(=O)OC1CCCC1)c1ccccc1)[C@H](O)C(=O)NO [tosedostat]
- Alanine aminotransferase increased, CTCAE grade 5, patients (all cycles): 0
- Alopecia, CTCAE grade 5, patients (all cycles): 0
- Anaemia, CTCAE grade 5, patients (all cycles): 0
- Anorexia, CTCAE grade 5, patients (all cycles): 0
- Arthralgia, CTCAE grade 5, patients (all cycles): 0
- Back pain, CTCAE grade 5, patients (all cycles): 0
- Blood bilirubin, CTCAE grade 5, patients (all cycles): 0
- Bronchitis, CTCAE grade 5, patients (all cycles): 0
- Constipation, CTCAE grade 5, patients (all cycles): 0
- Cough, CTCAE grade 5, patients (all cycles): 0
- Cystitis, CTCAE grade 5, patients (all cycles): 0
- Dehydration, CTCAE grade 5, patients (all cycles): 0
- Diabetes mellitus, CTCAE grade 5, patients (all cycles): 0
- Diarrhoea, CTCAE grade 5, patients (all cycles): 0
- Dizziness, CTCAE grade 5, patients (all cycles): 0
- Drug hypersensitivity, CTCAE grade 5, patients (all cycles): 0
- Dry skin, CTCAE grade 5, patients (all cycles): 0
- Dyspnoea, CTCAE grade 5, patients (all cycles): 0
- Eosinophilic myocarditis, CTCAE grade 5, patients (all cycles): 1
- Erythema, CTCAE grade 5, patients (all cycles): 0
- Fatigue, CTCAE grade 5, patients (all cycles): 0
- Gastric dilatation, CTCAE grade 5, patients (all cycles): 0
- General physical health deterioration, CTCAE grade 5, patients (all cycles): 0
- Hypercalcaemia, CTCAE grade 5, patients (all cycles): 0
- Hyperglycaemia, CTCAE grade 5, patients (all cycles): 0
- Hyperhidrosis, CTCAE grade 5, patients (all cycles): 0
- Leukopenia, CTCAE grade 5, patients (all cycles): 0
- Malaise, CTCAE grade 5, patients (all cycles): 0
- Mucosal inflammation, CTCAE grade 5, patients (all cycles): 0
- Myalgia, CTCAE grade 5, patients (all cycles): 0
- Nasopharyngitis, CTCAE grade 5, patients (all cycles): 0
- Nausea, CTCAE grade 5, patients (all cycles): 0
- Neutropenia, CTCAE grade 5, patients (all cycles): 0
- Oedema peripheral, CTCAE grade 5, patients (all cycles): 0
- Oedema, CTCAE grade 5, patients (all cycles): 0
- Peripheral sensory neuropathy, CTCAE grade 5, patients (all cycles): 0
- Pollakiuria, CTCAE grade 5, patients (all cycles): 0
- Pruritus, CTCAE grade 5, patients (all cycles): 0
- Pulmonary embolism, CTCAE grade 5, patients (all cycles): 0
- Pyrexia, CTCAE grade 5, patients (all cycles): 0
- Rash, CTCAE grade 5, patients (all cycles): 0
- Spinal cord compression, CTCAE grade 5, patients (all cycles): 0
- Tumour pain, CTCAE grade 5, patients (all cycles): 0
- Urinary tract infection, CTCAE grade 5, patients (all cycles): 0
- Vomiting, CTCAE grade 5, patients (all cycles): 0
- γ-glutamyltransferase increased, CTCAE grade 5, patients (all cycles): 0
- Alanine aminotransferase increased, CTCAE grade 5, patients (first 21 days): 0
- Alopecia, CTCAE grade 5, patients (first 21 days): 0
- Anaemia, CTCAE grade 5, patients (first 21 days): 0
- Anorexia, CTCAE grade 5, patients (first 21 days): 0
- Arthralgia, CTCAE grade 5, patients (first 21 days): 0
- Back pain, CTCAE grade 5, patients (first 21 days): 0
- Blood bilirubin, CTCAE grade 5, patients (first 21 days): 0
- Bronchitis, CTCAE grade 5, patients (first 21 days): 0
- Constipation, CTCAE grade 5, patients (first 21 days): 0
- Cough, CTCAE grade 5, patients (first 21 days): 0
- Cystitis, CTCAE grade 5, patients (first 21 days): 0
- Dehydration, CTCAE grade 5, patients (first 21 days): 0
- Diabetes mellitus, CTCAE grade 5, patients (first 21 days): 0
- Diarrhoea, CTCAE grade 5, patients (first 21 days): 0
- Dizziness, CTCAE grade 5, patients (first 21 days): 0
- Drug hypersensitivity, CTCAE grade 5, patients (first 21 days): 0
- Dry skin, CTCAE grade 5, patients (first 21 days): 0
- Dyspnoea, CTCAE grade 5, patients (first 21 days): 0
- Eosinophilic myocarditis, CTCAE grade 5, patients (first 21 days): 0
- Erythema, CTCAE grade 5, patients (first 21 days): 0
- Fatigue, CTCAE grade 5, patients (first 21 days): 0
- Gastric dilatation, CTCAE grade 5, patients (first 21 days): 0
- General physical health deterioration, CTCAE grade 5, patients (first 21 days): 0
- Hypercalcaemia, CTCAE grade 5, patients (first 21 days): 0
- Hyperglycaemia, CTCAE grade 5, patients (first 21 days): 0
- Hyperhidrosis, CTCAE grade 5, patients (first 21 days): 0
- Leukopenia, CTCAE grade 5, patients (first 21 days): 0
- Malaise, CTCAE grade 5, patients (first 21 days): 0
- Mucosal inflammation, CTCAE grade 5, patients (first 21 days): 0
- Myalgia, CTCAE grade 5, patients (first 21 days): 0
- Nasopharyngitis, CTCAE grade 5, patients (first 21 days): 0
- Nausea, CTCAE grade 5, patients (first 21 days): 0
- Neutropenia, CTCAE grade 5, patients (first 21 days): 0
- Oedema peripheral, CTCAE grade 5, patients (first 21 days): 0
- Oedema, CTCAE grade 5, patients (first 21 days): 0
- Peripheral sensory neuropathy, CTCAE grade 5, patients (first 21 days): 0
- Pollakiuria, CTCAE grade 5, patients (first 21 days): 0
- Pruritus, CTCAE grade 5, patients (first 21 days): 0
- Pulmonary embolism, CTCAE grade 5, patients (first 21 days): 0
- Pyrexia, CTCAE grade 5, patients (first 21 days): 0
- Rash, CTCAE grade 5, patients (first 21 days): 0
- Spinal cord compression, CTCAE grade 5, patients (first 21 days): 0
- Tumour pain, CTCAE grade 5, patients (first 21 days): 0
- Urinary tract infection, CTCAE grade 5, patients (first 21 days): 0
- Vomiting, CTCAE grade 5, patients (first 21 days): 0
- γ-glutamyltransferase increased, CTCAE grade 5, patients (first 21 days): 0
- Alanine aminotransferase increased, CTCAE grade 1, patients (human, in vivo): 1
- Alanine aminotransferase increased, CTCAE grade 2, patients (human, in vivo): 1
- Alanine aminotransferase increased, CTCAE grade 3, patients (human, in vivo): 1
- Alanine aminotransferase increased, CTCAE grade 4, patients (human, in vivo): 0
- Alanine aminotransferase increased, patients with events, % (human, in vivo): 14%
- Alopecia, CTCAE grade 2, patients (human, in vivo): 20
- Alopecia, CTCAE grade 3, patients (human, in vivo): 0
- Alopecia, CTCAE grade 4, patients (human, in vivo): 0
- Alopecia, patients with events, % (human, in vivo): 95%
- Anaemia, CTCAE grade 1, patients (human, in vivo): 1
- Anaemia, CTCAE grade 4, patients (human, in vivo): 0
- Anorexia, CTCAE grade 1, patients (human, in vivo): 6
- Anorexia, CTCAE grade 2, patients (human, in vivo): 2
- Anorexia, CTCAE grade 3, patients (human, in vivo): 2
- Anorexia, CTCAE grade 4, patients (human, in vivo): 0
- Anorexia, patients with events, % (human, in vivo): 45%
- Arthralgia, CTCAE grade 1, patients (human, in vivo): 5
- Arthralgia, CTCAE grade 2, patients (human, in vivo): 0
- Arthralgia, CTCAE grade 3, patients (human, in vivo): 0
- Arthralgia, CTCAE grade 4, patients (human, in vivo): 0
- Arthralgia, patients with events, % (human, in vivo): 23%
- Back pain, CTCAE grade 1, patients (human, in vivo): 3
- Back pain, CTCAE grade 2, patients (human, in vivo): 2
- Back pain, CTCAE grade 3, patients (human, in vivo): 0
- Back pain, CTCAE grade 4, patients (human, in vivo): 0
- Back pain, patients with events, % (human, in vivo): 23%
- Blood bilirubin, CTCAE grade 1, patients (human, in vivo): 0
- Blood bilirubin, CTCAE grade 2, patients (human, in vivo): 0
- Blood bilirubin, CTCAE grade 3, patients (human, in vivo): 1
- Blood bilirubin, CTCAE grade 4, patients (human, in vivo): 0
- Blood bilirubin, patients with events, % (human, in vivo): 5%
- Bronchitis, CTCAE grade 1, patients (human, in vivo): 0
- Bronchitis, CTCAE grade 2, patients (human, in vivo): 0
- Bronchitis, CTCAE grade 3, patients (human, in vivo): 1
- Bronchitis, CTCAE grade 4, patients (human, in vivo): 0
- Bronchitis, patients with events, % (human, in vivo): 5%
- Constipation, CTCAE grade 1, patients (human, in vivo): 3
- Constipation, CTCAE grade 2, patients (human, in vivo): 3
- Constipation, CTCAE grade 3, patients (human, in vivo): 0
- Constipation, CTCAE grade 4, patients (human, in vivo): 0
- Constipation, patients with events, % (human, in vivo): 27%
- Cough, CTCAE grade 1, patients (human, in vivo): 8
- Cough, CTCAE grade 2, patients (human, in vivo): 1
